Values quoted from earlier work in patent publication US20100249042A1, “COMPOSITIONS AND METHODS FOR TREATMENT OF EYELASHES AND EYEBROWS” (ProCyte Corporation, priority 2009, published 2010).

Tests used:
human hair follicles = settings: ex vivo; Pyo et al. 2007
[1] = test system: Dermal papilla cells (DPCs); settings: in vitro; Pyo et al. 2007

L-alanyl-L-histidyl-L-lysine:copper(II) [AHK-Cu]
elongation of human hair follicles (human hair follicles): stimulated
proliferation of DPCs [1]: stimulated
